In brackets after ≈: the same amount, converted by molar mass. Several values for one entry are separate records, joined by “and”; a condition that tells them apart may be missing. Equal entries are not always repeated.
Key:
[1] = tested on: isolated human erythrocytes; assay: in vitro; assay type: cell-based
Outline: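 Pooled human red cells, washed and diluted from a 0.22% stock suspension in TBS pH 7.4, were shaken with two-fold dilutions (1000 to 0.48 µg/ml) for 1 h at 37 °C. Released hemoglobin in the supernatant was read at OD405. EC50 came from a four-parameter logistic fit, with melittin as positive control.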

[2] = Cytotoxicity colorimetric assay, HepG2; assay type: cell-based, human; conditions: human, HepG2 cells, one hour in serum-free media
Outline: (§1)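 HepG2 cells (3×10^4/well, MEM + 10% FBS) and NIH/3T3 cells (2×10^4/well, DMEM + 10% BCS) were exposed to compound for 1 h in serum-free medium. Viability read by tetrazolium-to-formazan bioreduction after return to serum medium; EC50 from a four-parameter logistic fit.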

HepG2 cells = assay: Cytotoxicity colorimetric assay, HepG2; assay type: cell-based, human; conditions: one hour in serum-free media
Outline: as §1

[3] = Cytotoxicity colorimetric assay, NIH/3T3; assay type: cell-based, mouse; conditions: mouse, NIH/3T3 cells, one hour in serum-free media
Outline: as §1

NIH/3T3 cells = assay: Cytotoxicity colorimetric assay, NIH/3T3; assay type: cell-based, mouse; conditions: one hour in serum-free media
Outline: as §1

Unfractionated heparin = assay: aPTT clotting assay, UFH 0.4 U/mL in plasma (Example 10); assay type: biochemical; conditions: unfractionated heparin 0.4 U/mL in plasma; aPTT clotting
Method: aPTT clotting Assay: Unfractionated heparin was mixed with plasma at a final concentration of 0.4 U/mL (or concentration which increases aPTT time to between 120 and 300 seconds). […] The ACL Elite Hemostasis analyzer (Beckman Coulter™) was used to add aPTT reagent (HemosIL SynthASil) to supplemented plasma. Clotting was initiated by addition of CaCl2 and time to clot was recorded.

UFH [4] = assay: In vivo neutralization of unfractionated heparin in the rat; conditions: UFH 100 U/kg IV, 1 mg/kg dose IV
Method: The male Sprague-Dawley rats used in this study were obtained from Charles River Laboratories, Raleigh. They were nine-weeks-old at the start of the study and their weights ranged from 279-334 g. Rats were pre-treated with UFH administered by IV injection in a tail vein at 100 U/kg in a dose volume of 1 mL/kg. The rats were then treated with a single IV injection of saline, protamine or the appropriate test compound at doses of 0.25, 0.5 and 1.0 mg/kg. All treatments were dosed in a volume of 1 mL/kg. Blood was collected via the orbital sinus from three rats per group at the following time points after treatment: predose, 1, 3, 10, 30 and 60. At each time point, 1 mL of blood was collected from each animal into a single tube. The blood was analyzed using an AMEX Destiny Plus Coagulation Analyzer for activated partial thromboplastintime (APTT) and anti-Factor Xa.

enoxaparin [5] = assay: In vivo neutralization of enoxaparin in the rat; conditions: compared with protamine
Method: Compounds were tested for their ability to neutralize enoxaparin coagulation inhibition in rats. Male Sprague-Dawley rats were used in this study (Charles River Laboratories). They were ten-weeks-old at the start of the study and their weights ranged from 319-362 g. Enoxaparin (2 mg/kg) was administered by IV injection to groups of six rats. After 3 min, saline, protamine or a test compound was administered by IV injection. Blood was collected before dosing with enoxaparin, and at 1, 3, 10, 30 and 60 min after dosing with the standard and test compounds. All treatments were dosed in a volume of 1 mL/kg. Blood was collected via the orbital sinus from three rats per group. At each time point, 1 mL of blood was collected from each animal into a single tube. The blood was analyzed using an AMEX Destiny Plus Coagulation Analyzer for activated partial thromboplastin time (APTT) and anti-Factor Xa (low-molecular weight).

enoxaparin [6] = assay: Enoxaparin-extended bleeding times, rat tail transection model; assay type: in vivo
Method: Studies have now been done to examine effects on extended bleeding times caused by enoxaparin treatment. Male Sprague Dawley rats (Charles River) were administered 2 mg/kg enoxaparin by IV injection in the tail vein, followed 3 minutes later by test agent (IV, tail vein) at 2 and 5 mg/kg doses. Tails were then rapidly transected and bleeding time onto an absorbant pad was determined. Enoxaparin alone (no antagonist) extends bleeding time from 11 to 24 seconds.

fondaparinux [7] = assay: In vivo neutralization of fondaparinux in the rat; conditions: fondaparinux 0.5 mg/kg IV, test agent 2 and 5 mg/kg IV
Method: Compounds were selected to test fondaparinux neutralization in vivo. Rats were pre-treated with fondaparinux administered by IV injection at 0.5 mg/kg. The rats were then treated with a single IV injection of saline, protamine or the PMX compound. Blood was collected via the orbital sinus from three rats per group at the following time points: pre-dose, 1, 3, 10, 30 and 60 min. Plasma samples were prepared for analysis of anti-factor Xa activity using an AMEX Destiny Plus Coagulation Analyzer.

blood pressure = assay: Hemodynamic responses in the anesthetized rat; assay type: in vivo
Description: As a key safety issue for cationic compounds is reduction in blood pressure shortly after administration. To address this hemodynamic issue, a medicinal chemistry strategy with literature precedence of introducing carboxylic acid functionality was applied to the salicylamide series of compounds. […] Surgically prepared animals were purchased from Charles River Laboratories, Raleigh, N.C. Animals were anesthetized on the day of experiment with isoflurane (1.8-4%). Blood pressure and heart rate data were collected on a Grass Polygraph recorder. The test articles, vehicle or protamine dosing preparations were administered once to each rat by a 10 minute intravenous infusion three minutes following a single intravenous injection of heparin (50 U/kg). Each animal received a dose volume of 2.0 mL/kg. Blood pressure was recorded prior to treatment for approximately 1 minute and immediately following heparin, immediately following vehicle, test articles or protamine and at 5, 15, 30, and 60 minutes following dosing. The doses of test agent were either 8 mg/kg or 16 mg/kg. The differences in hemodynamic effect at 16 mg/kg were especially profound (FIG. 5).

[8] = Coagulation properties via ROTEM; conditions: at fully efficacious doses
UFH [9] = assay: FXa amidolytic assay (Example 10), UFH; conditions: read-out: Heparin FXa uM EC50; UFH 0.03 units/mL; human antithrombin, bovine Factor Xa
tinzaparin = assay: FXa amidolytic assay (Example 10), tinzaparin; conditions: read-out: Tinzap FXa EC50; tinzaparin 0.1 ug/ml; human antithrombin, bovine Factor Xa
fondaparinux [10] = assay: FXa amidolytic assay (Example 10), fondaparinux

- EC50 (Unfractionated heparin): 1390 nM and 1840 nM
- EC50 (UFH [9]): 0.101 µM
- EC50 (tinzaparin): 124 nM and 96 nM
- EC50 (fondaparinux [10]; read-out: Fondap FXa EC50, fondaparinux 0.02 μg/mL, human antithrombin, bovine Factor Xa): 575 nM and 530 nM and 452 nM
SMILES: COc1ccc(NC(=O)[C@@H](CCCNC(=N)N)NC(=O)c2cc(NC(=O)[C@@H](CCCNC(=N)N)NC(=O)c3cc(NC(=O)[C@@H](CCCNC(=N)N)NC(=O)c4cc(NC(=O)[C@H](N)CCCNC(=N)N)ccc4OCC(=O)O)ccc3OC)ccc2OC)cc1C(N)=O [Compound 283]
- hemolysis and cytotoxicity (summary) [1]: non-hemolytic and low cytotoxicity
- EC50 ([1]; Homo sapiens, Erythrocyte, 1 h, human RBC, 1 hour at 37° C., read-out: Hemolysis EC50): > 1000 µg/mL
- EC50 at 1 h [2]: 1000 µg/mL (≈ 780 µM)
- Cytotoxicity HepG2 EC50 (HepG2 cells): >1000 µg/mL
- EC50 at 1 h [3]: 1000 µg/mL (≈ 780 µM)
- Cytotoxicity 3T3 EC50 (NIH/3T3 cells): >1000 µg/mL
- neutralization of UFH activity in aPTT assays (UFH [4]): complete neutralization
- in vivo efficacy versus LMWH by anti-factor Xa activity (summary) (enoxaparin [5]): superior to protamine
- in vivo efficacy versus LMWH by bleeding time (summary) (enoxaparin [6]; compared with protamine): superior to protamine
- neutralization of prolonged bleeding times (enoxaparin [6]; rat, enoxaparin 2 mg/kg IV, test agent 2 mg/kg IV): completely neutralized
- reduction of Factor Xa (anti-factor Xa) levels after fondaparinux (fondaparinux [7]): lack of effectiveness
- hemodynamic response profile (blood pressure; anesthetized rat, 8 or 16 mg/kg 10 minute IV infusion after heparin 50 U/kg): superior to protamine
- hemodynamic liabilities (summary) (blood pressure; rat, in vivo): reduced hemodynamic liabilities
- coagulation properties via ROTEM [8]: normal coagulation properties at fully efficacious doses
- Potent LMWH-antagonists with superior anti-fondaparinux activity (summary) (fondaparinux [10]): superior anti-fondaparinux activity
